# Source: ChEMBL document CHEMBL3991601, “The target landscape of clinical kinase drugs” (Science, 2017)
# pKd: −log10 of the molar value. Activity calls are given as the source filed them. Cut-off read from the data, not from the text of the source, for most assays here: actives have a measured Kd and inactives only a lower limit.
# Legend:
# Ephrin type-B receptor 4 = target: T1, Ephrin type-B receptor 4 (Homo sapiens, UniProt P54760)
# T1 sequence (P54760 whole entry): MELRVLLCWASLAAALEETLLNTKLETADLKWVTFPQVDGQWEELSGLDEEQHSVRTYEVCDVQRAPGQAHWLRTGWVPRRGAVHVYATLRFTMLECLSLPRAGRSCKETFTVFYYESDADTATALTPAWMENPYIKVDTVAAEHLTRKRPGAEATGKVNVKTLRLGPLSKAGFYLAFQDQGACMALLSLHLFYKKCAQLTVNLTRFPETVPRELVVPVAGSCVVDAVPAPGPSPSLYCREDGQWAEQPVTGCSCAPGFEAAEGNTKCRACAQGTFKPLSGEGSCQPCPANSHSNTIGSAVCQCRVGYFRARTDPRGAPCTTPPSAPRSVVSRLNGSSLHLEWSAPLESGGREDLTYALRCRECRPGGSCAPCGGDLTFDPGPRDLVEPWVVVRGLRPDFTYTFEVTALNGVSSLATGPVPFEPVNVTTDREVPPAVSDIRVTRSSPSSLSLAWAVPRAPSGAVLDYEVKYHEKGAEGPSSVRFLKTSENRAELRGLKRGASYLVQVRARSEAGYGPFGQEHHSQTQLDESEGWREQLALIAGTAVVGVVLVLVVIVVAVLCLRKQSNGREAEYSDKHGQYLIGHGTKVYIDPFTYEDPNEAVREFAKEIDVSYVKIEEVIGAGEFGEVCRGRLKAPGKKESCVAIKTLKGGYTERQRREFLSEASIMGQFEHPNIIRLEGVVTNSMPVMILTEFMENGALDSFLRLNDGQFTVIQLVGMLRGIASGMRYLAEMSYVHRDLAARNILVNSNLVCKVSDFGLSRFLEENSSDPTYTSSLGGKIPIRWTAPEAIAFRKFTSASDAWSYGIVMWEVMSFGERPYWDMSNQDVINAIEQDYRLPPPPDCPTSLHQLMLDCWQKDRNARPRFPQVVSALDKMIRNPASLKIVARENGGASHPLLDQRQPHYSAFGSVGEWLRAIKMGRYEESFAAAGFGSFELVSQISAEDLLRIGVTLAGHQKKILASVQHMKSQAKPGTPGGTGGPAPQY
# [1] = target: ATP-dependent RNA helicase DDX3X (Homo sapiens, UniProt O00571)
# [2] = target: T2, MAP kinase-activated protein kinase 5 (Homo sapiens, UniProt Q8IW41)
# T2 sequence (Q8IW41 whole entry): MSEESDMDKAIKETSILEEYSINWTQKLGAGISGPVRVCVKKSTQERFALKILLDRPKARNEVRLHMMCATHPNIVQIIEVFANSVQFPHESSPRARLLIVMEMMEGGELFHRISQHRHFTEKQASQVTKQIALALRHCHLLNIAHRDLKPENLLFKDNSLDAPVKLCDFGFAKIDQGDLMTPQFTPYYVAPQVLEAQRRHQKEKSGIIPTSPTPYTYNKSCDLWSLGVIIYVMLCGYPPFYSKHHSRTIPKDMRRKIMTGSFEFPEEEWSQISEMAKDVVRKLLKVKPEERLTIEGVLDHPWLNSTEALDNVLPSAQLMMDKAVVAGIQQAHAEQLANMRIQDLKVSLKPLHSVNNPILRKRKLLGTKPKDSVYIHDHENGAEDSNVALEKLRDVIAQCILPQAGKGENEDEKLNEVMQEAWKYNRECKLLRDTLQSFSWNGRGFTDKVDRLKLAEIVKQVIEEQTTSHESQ
# [3] = target: STE20-like serine/threonine-protein kinase (Homo sapiens, UniProt Q9H2G2)
# [4] = target: Protein-tyrosine kinase 2-beta (Homo sapiens, UniProt Q14289)
# [5] = target: Ribosomal protein S6 kinase alpha-6 (Homo sapiens, UniProt Q9UK32)
# Heme oxygenase 2 = target: T3, Heme oxygenase 2 (Homo sapiens, UniProt P30519)
# T3 sequence (P30519 whole entry): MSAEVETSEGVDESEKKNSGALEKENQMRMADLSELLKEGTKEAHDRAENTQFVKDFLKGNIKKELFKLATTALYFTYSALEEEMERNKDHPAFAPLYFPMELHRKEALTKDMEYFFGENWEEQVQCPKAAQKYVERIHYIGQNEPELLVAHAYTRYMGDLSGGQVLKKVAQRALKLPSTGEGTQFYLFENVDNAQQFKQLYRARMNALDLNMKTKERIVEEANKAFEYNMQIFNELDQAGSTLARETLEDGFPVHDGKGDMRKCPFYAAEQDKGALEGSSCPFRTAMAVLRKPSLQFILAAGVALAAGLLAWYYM
# [6] = target: Tyrosine-protein kinase ABL2 (Homo sapiens, UniProt P42684)
# Activin receptor type-1 = target: T4, Activin receptor type-1 (Homo sapiens, UniProt Q04771)
# T4 sequence (Q04771 whole entry): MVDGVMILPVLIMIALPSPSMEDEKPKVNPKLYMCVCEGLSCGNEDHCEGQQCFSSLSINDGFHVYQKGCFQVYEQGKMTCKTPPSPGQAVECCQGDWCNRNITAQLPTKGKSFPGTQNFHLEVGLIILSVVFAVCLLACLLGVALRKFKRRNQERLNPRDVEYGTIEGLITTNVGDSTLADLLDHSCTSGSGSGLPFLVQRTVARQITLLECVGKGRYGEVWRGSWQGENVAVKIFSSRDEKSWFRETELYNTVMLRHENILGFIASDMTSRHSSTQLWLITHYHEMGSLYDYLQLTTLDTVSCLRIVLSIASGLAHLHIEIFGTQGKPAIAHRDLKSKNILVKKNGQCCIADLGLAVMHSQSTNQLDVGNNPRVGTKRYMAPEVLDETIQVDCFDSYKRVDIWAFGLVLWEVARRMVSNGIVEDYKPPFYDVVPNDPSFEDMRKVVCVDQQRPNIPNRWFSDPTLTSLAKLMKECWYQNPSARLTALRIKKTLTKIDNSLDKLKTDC
# Note: in the data inactive means no Kd found up to 30 µM.
# Chain of Protein-tyrosine kinase 2-beta (Q14289 whole entry): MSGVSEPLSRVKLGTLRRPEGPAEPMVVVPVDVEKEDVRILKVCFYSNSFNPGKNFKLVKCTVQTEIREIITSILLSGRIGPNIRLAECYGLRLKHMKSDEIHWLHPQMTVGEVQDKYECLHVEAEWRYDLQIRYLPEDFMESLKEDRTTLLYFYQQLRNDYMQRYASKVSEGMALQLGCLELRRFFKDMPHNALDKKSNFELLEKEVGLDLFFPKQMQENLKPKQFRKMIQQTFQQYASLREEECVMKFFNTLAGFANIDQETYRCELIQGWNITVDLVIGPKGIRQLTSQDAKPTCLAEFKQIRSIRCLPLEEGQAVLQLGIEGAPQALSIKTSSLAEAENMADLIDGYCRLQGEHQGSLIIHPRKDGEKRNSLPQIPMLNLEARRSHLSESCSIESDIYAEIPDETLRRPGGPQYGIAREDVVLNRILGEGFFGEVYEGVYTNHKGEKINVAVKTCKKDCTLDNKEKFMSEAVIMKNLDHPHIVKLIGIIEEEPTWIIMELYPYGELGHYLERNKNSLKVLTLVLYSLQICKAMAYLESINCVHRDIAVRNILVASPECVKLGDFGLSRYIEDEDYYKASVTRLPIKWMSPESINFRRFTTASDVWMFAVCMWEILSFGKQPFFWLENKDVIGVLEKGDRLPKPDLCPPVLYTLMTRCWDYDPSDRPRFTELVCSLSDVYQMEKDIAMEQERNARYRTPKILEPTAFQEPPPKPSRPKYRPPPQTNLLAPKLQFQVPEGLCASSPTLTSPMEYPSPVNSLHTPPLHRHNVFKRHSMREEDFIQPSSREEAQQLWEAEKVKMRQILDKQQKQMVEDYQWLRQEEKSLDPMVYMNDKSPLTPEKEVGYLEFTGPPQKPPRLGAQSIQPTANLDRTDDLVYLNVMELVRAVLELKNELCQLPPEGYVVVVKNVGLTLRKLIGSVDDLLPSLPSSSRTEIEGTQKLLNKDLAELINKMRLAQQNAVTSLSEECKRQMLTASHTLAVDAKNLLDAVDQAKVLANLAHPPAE
# Chain of Tyrosine-protein kinase ABL2 (P42684 whole entry): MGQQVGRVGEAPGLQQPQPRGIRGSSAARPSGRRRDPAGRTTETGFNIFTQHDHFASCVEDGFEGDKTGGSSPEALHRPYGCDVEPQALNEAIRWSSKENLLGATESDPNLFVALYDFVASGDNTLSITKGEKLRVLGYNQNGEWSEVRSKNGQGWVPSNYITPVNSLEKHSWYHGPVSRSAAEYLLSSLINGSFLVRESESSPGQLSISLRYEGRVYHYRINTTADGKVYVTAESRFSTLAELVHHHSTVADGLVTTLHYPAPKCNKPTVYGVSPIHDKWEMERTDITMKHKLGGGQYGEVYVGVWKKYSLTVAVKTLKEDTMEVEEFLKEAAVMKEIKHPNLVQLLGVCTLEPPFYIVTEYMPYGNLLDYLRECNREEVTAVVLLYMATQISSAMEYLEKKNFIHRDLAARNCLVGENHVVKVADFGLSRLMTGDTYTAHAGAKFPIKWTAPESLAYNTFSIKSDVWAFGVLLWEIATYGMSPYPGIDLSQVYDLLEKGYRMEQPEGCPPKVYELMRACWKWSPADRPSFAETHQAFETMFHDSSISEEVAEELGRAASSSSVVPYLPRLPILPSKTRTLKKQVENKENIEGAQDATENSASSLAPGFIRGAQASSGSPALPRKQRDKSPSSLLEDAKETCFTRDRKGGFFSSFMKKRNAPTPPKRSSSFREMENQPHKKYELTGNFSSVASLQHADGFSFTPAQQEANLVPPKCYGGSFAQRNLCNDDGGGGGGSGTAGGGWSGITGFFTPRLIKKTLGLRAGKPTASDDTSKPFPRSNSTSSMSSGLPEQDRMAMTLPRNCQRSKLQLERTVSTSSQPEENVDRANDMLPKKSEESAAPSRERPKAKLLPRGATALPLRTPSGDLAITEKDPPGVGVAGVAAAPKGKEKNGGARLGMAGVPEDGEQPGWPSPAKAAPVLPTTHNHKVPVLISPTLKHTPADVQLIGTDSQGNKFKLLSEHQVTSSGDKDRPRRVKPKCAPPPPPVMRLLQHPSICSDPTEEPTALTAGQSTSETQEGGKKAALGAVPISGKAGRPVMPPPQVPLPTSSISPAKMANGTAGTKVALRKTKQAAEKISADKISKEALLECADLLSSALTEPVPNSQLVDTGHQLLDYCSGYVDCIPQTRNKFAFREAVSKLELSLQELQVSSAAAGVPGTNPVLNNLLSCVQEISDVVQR
# Chain of ATP-dependent RNA helicase DDX3X (O00571 whole entry): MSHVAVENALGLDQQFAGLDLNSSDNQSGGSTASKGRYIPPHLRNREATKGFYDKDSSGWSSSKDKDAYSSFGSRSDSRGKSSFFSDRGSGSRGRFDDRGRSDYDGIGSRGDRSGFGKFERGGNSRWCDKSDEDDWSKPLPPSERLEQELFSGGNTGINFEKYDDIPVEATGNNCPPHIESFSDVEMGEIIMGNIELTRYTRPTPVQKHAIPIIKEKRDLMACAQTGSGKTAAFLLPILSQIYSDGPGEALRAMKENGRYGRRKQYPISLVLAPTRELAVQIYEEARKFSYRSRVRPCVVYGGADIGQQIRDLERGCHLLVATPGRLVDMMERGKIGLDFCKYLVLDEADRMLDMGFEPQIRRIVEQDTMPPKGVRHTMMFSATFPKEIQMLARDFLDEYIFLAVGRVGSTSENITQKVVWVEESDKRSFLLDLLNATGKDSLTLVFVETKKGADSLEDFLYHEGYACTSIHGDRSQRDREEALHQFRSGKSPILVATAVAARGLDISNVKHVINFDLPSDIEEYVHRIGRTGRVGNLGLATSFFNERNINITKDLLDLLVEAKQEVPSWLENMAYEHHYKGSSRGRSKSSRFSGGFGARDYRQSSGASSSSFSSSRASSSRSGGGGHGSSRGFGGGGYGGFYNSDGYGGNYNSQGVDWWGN
# Chain of STE20-like serine/threonine-protein kinase (Q9H2G2 whole entry): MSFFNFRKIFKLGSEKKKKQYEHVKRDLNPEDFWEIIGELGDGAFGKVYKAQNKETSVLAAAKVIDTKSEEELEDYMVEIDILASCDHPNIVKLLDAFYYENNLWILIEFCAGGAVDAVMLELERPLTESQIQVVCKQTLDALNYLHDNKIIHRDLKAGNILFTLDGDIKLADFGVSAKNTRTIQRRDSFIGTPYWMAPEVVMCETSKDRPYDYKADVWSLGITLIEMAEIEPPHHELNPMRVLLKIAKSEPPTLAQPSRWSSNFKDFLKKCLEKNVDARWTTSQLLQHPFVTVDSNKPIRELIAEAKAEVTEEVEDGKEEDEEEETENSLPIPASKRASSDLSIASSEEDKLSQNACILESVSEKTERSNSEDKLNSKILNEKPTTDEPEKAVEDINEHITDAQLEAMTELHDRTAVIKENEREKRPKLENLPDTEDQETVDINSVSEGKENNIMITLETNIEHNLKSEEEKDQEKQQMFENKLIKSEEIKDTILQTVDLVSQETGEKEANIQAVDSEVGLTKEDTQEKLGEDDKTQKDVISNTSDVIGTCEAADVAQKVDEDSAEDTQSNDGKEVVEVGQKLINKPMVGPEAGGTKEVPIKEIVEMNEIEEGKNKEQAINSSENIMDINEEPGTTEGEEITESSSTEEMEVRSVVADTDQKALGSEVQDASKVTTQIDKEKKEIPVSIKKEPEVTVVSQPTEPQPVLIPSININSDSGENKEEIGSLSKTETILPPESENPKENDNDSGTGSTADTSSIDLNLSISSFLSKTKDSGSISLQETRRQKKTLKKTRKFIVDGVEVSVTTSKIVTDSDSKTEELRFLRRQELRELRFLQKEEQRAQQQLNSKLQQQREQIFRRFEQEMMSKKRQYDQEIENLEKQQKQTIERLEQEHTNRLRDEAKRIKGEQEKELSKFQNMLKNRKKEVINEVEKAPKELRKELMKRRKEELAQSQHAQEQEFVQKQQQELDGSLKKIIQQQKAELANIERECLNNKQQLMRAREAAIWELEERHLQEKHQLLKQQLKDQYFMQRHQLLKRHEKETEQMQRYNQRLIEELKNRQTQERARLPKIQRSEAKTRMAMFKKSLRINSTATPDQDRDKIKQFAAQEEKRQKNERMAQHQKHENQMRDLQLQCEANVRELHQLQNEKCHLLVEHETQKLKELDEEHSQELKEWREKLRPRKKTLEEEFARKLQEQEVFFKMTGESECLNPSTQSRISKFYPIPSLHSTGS
# Chain of Ribosomal protein S6 kinase alpha-6 (Q9UK32 whole entry): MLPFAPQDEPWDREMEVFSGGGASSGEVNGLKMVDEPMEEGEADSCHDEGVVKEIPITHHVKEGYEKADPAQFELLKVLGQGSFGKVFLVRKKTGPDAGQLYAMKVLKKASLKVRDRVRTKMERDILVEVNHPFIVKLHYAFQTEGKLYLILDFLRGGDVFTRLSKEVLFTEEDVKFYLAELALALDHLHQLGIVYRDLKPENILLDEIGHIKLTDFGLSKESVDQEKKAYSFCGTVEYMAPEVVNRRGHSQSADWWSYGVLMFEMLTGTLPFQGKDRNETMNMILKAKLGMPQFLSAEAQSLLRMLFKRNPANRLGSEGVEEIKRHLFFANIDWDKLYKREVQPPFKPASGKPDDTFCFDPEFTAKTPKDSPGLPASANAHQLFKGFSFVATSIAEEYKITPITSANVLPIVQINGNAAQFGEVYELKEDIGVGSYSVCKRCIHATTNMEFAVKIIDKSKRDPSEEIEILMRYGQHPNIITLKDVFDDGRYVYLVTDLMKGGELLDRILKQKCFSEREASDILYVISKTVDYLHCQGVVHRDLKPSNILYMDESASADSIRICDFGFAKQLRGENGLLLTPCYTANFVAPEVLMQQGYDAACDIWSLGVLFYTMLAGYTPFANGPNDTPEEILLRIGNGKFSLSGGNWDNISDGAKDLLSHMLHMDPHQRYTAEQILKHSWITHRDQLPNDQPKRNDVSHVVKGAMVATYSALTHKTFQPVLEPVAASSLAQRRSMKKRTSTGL
Structure (SMILES),Kd (Ephrin type-B receptor 4),Kd [1],Kd [2],Kd [3],Kd [4],Kd [5],Kd (Heme oxygenase 2),Kd [6],Kd (Activin receptor type-1),pKd (Ephrin type-B receptor 4)
CNC(=O)c1ccc(-c2cnc3ncc(Cc4ccc5ncccc5c4)n3n2)cc1F [CAPMATINIB],> 30 µM (inactive),> 30 µM (inactive),> 30 µM (inactive),> 30 µM (inactive),> 30 µM (inactive),> 30 µM (inactive),> 30 µM (inactive),> 30 µM (inactive),> 30 µM (inactive),–
CCn1c(=O)c(-c2cc[nH]n2)cc2c(C)nc(N)nc21 [VOXTALISIB],> 30 µM (inactive),> 30 µM (inactive),> 30 µM (inactive),> 30 µM (inactive),> 30 µM (inactive),> 30 µM (inactive),> 30 µM (inactive),> 30 µM (inactive),> 30 µM (inactive),–
COc1cc(OC)c(/C=C/S(=O)(=O)Cc2ccc(OC)c(NCC(=O)O)c2)c(OC)c1 [RIGOSERTIB],> 30 µM (inactive),> 30 µM (inactive),> 30 µM (inactive),> 30 µM (inactive),> 30 µM (inactive),> 30 µM (inactive),> 30 µM (inactive),> 30 µM (inactive),> 30 µM (inactive),–
C=CC(=O)N1CCC(Oc2cc3c(Nc4ccc(Cl)c(Cl)c4F)ncnc3cc2OC)CC1 [POZIOTINIB],0.34 µM (active),> 30 µM (inactive),> 30 µM (inactive),> 30 µM (inactive),> 30 µM (inactive),> 30 µM (inactive),> 30 µM (inactive),> 30 µM (inactive),> 30 µM (inactive),–
Cc1ccc(-n2nc(C(C)(C)C)cc2NC(=O)NCc2cc(F)ccc2Oc2ccc3c(cnn3CCO)c2)cc1 [PEXMETINIB],–,> 30 µM (inactive),> 30 µM (inactive),> 30 µM (inactive),30.4 µM (active),> 30 µM (inactive),> 30 µM (inactive),0.351 µM (active),> 30 µM (inactive),5.28
Cn1cc(-c2ccc(F)c(C(F)(F)F)c2)nc1C1CCN(c2ncnc3[nH]ncc23)CC1 [LY-2584702],> 30 µM (inactive),> 30 µM (inactive),> 30 µM (inactive),> 30 µM (inactive),> 30 µM (inactive),> 30 µM (inactive),> 30 µM (inactive),> 30 µM (inactive),> 30 µM (inactive),–
CC[C@H](Nc1ncnc2[nH]cnc12)c1nc2cccc(F)c2c(=O)n1-c1ccccc1 [IDELALISIB],> 30 µM (inactive),> 30 µM (inactive),> 30 µM (inactive),> 30 µM (inactive),> 30 µM (inactive),> 30 µM (inactive),> 30 µM (inactive),> 30 µM (inactive),> 30 µM (inactive),–
O=C1NC(=O)/C(=C/c2ccc3nccc(-c4ccncc4)c3c2)S1 [GSK-1059615],> 30 µM (inactive),> 30 µM (inactive),> 30 µM (inactive),4.32 µM (active),> 30 µM (inactive),> 30 µM (inactive),> 30 µM (inactive),> 30 µM (inactive),> 30 µM (inactive),–
CNC(=O)c1cc(Oc2ccc(NC(=O)Nc3ccc(Cl)c(C(F)(F)F)c3)c(F)c2)ccn1 [REGORAFENIB],> 30 µM (inactive),> 30 µM (inactive),> 30 µM (inactive),> 30 µM (inactive),> 30 µM (inactive),> 30 µM (inactive),> 30 µM (inactive),> 30 µM (inactive),> 30 µM (inactive),–
CN1N=C(N)c2cn([C@@H]3O[C@H](COP(=O)(O)O)[C@@H](O)[C@H]3O)c3ncnc1c23 [TRICIRIBINE PHOSPHATE],> 30 µM (inactive),> 30 µM (inactive),> 30 µM (inactive),> 30 µM (inactive),> 30 µM (inactive),> 30 µM (inactive),> 30 µM (inactive),> 30 µM (inactive),> 30 µM (inactive),–
CN1CCC(CNc2ccc3ncc(-c4cccc(OC(F)(F)F)c4)n3n2)CC1 [SGI-1776],> 30 µM (inactive),> 30 µM (inactive),> 30 µM (inactive),3.59 µM (active),> 30 µM (inactive),23.8 µM (active),> 30 µM (inactive),> 30 µM (inactive),0.458 µM (active),–
CC(C)Nc1cc(-c2c[nH]c(C(=O)N[C@H](CO)c3cccc(Cl)c3)c2)c(Cl)cn1 [ULIXERTINIB],> 30 µM (inactive),> 30 µM (inactive),> 30 µM (inactive),> 30 µM (inactive),> 30 µM (inactive),> 30 µM (inactive),> 30 µM (inactive),> 30 µM (inactive),> 30 µM (inactive),–
CC[C@@H]1C(=O)N(C)c2cnc(Nc3ccc(C(=O)N[C@H]4CC[C@H](N5CCN(CC6CC6)CC5)CC4)cc3OC)nc2N1C(C)C [VOLASERTIB],> 30 µM (inactive),> 30 µM (inactive),> 30 µM (inactive),> 30 µM (inactive),> 30 µM (inactive),> 30 µM (inactive),> 30 µM (inactive),> 30 µM (inactive),> 30 µM (inactive),–
CN1CC[C@@H](c2c(O)cc(O)c3c(=O)cc(-c4ccccc4Cl)oc23)[C@@H]1CO,> 30 µM (inactive),> 30 µM (inactive),> 30 µM (inactive),> 30 µM (inactive),> 30 µM (inactive),> 30 µM (inactive),> 30 µM (inactive),> 30 µM (inactive),> 30 µM (inactive),–
Cc1ccc(S(=O)(=O)Nc2nc3ccccc3nc2Nc2ccc3nsnc3c2)cc1,> 30 µM (inactive),> 30 µM (inactive),> 30 µM (inactive),> 30 µM (inactive),> 30 µM (inactive),> 30 µM (inactive),> 30 µM (inactive),> 30 µM (inactive),> 30 µM (inactive),–
COc1cc2nccc(Oc3ccc(NC(=O)NC4CC4)c(Cl)c3)c2cc1C(N)=O [LENVATINIB],> 30 µM (inactive),> 30 µM (inactive),> 30 µM (inactive),3.85 µM (active),> 30 µM (inactive),> 30 µM (inactive),> 30 µM (inactive),> 30 µM (inactive),> 30 µM (inactive),–
